Assay results as given in ChEMBL document CHEMBL3856224, “Novel series of tacrine-tianeptine hybrids: Synthesis, cholinesterase inhibitory activity, S100B secretion and a molecular modeling approach” (Eur J Med Chem, 2016).
pIC50: −log10 of the molar value. Active and inactive are the calls of the source. No cut-off for these calls is given here.

Columns and labels:
Acetylcholinesterase = target: T1, Acetylcholinesterase (Rattus norvegicus, UniProt P37136); design: species or system Wistar
T1 sequence (P37136 whole entry): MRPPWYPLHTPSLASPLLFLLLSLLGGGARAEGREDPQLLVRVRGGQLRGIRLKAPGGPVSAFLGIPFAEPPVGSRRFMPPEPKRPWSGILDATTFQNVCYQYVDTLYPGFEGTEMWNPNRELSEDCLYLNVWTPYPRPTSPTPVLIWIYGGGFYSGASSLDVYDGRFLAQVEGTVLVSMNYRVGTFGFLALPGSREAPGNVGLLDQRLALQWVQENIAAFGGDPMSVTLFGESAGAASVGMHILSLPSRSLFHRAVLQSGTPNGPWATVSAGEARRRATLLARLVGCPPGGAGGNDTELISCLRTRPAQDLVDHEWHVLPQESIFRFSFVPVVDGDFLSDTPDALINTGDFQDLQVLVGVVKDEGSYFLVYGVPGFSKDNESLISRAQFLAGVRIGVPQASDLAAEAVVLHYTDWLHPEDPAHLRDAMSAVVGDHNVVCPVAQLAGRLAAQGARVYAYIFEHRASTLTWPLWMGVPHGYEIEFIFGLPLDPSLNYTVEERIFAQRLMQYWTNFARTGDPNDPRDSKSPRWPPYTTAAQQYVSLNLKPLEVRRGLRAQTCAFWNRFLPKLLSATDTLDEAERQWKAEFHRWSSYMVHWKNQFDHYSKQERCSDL
Description: Inhibition of Wistar rat brain AChE using acetylthiochloline iodide as substrate after 30 mins by Ellman's method

Cholinesterase = Cholinesterase (Homo sapiens, UniProt P06276)
Chain of Cholinesterase (P06276 whole entry): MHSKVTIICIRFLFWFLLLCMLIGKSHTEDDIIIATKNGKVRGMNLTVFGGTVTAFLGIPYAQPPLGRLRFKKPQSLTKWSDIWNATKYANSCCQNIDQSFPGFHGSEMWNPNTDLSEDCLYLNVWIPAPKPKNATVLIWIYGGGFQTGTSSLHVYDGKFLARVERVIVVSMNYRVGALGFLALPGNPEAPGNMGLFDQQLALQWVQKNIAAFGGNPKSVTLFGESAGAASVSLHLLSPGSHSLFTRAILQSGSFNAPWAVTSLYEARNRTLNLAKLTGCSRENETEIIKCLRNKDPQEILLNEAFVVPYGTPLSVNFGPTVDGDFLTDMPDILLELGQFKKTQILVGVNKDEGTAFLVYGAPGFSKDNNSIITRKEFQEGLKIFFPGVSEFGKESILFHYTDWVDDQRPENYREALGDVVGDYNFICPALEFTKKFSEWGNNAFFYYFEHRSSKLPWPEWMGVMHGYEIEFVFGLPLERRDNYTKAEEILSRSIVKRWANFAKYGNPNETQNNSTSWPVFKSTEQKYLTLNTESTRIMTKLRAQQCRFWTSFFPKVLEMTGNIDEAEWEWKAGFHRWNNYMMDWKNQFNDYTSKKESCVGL
Description: Inhibition of human plasma BuChE using S-butyrylthiocholine iodide as substrate after 30 mins by Ellman's method

Hippocampus = test: Reduction of S100B secretion in Wistar rat hippocampus at 0.03 to 0.3 uM after 1 hr by ELISA; type: functional
Rattus norvegicus [1] = species: Rattus norvegicus; test: Toxicity in Wistar rat hippocampus assessed as LDH release at 0.03 uM relative to control; type: organism-based; details: in vivo
Rattus norvegicus [2] = species: Rattus norvegicus; test: Toxicity in Wistar rat hippocampus assessed as LDH release at 0.1 uM relative to control; type: organism-based; details: in vivo
Rattus norvegicus [3] = species: Rattus norvegicus; test: Toxicity in Wistar rat hippocampus assessed as LDH release at 0.3 uM relative to control; type: organism-based; details: in vivo

SMILES	pIC50 (Acetylcholinesterase)	pIC50 (Cholinesterase)	Activity (Hippocampus)	Activity (Rattus norvegicus [1])	Activity (Rattus norvegicus [2])	Activity (Rattus norvegicus [3])
CN1c2ccccc2C(NCCCCCCC(=O)NCCCCNc2c3c(nc4cc(Cl)ccc24)CCCC3)c2ccc(Cl)cc2S1(=O)=O (stereo unspecified)	7.44	7.32				
CN1c2ccccc2C(NCCCCCCC(=O)NCCCCCCNc2c3c(nc4cc(Cl)ccc24)CCCC3)c2ccc(Cl)cc2S1(=O)=O (stereo unspecified)	7.41	7.49				
CN1c2ccccc2C(NCCCCCCC(=O)NCCCCCCCCNc2c3c(nc4ccccc24)CCCC3)c2ccc(Cl)cc2S1(=O)=O (stereo unspecified)	7.06	8.39				
CN1c2ccccc2C(NCCCCCCC(=O)NCCCCCCCCNc2c3c(nc4cc(Cl)ccc24)CCCC3)c2ccc(Cl)cc2S1(=O)=O (stereo unspecified)	6.34	6.34				
CN1c2ccccc2C(NCCCCCCC(=O)NCCCNc2c3c(nc4ccccc24)CCCC3)c2ccc(Cl)cc2S1(=O)=O (stereo unspecified)	7.28	7.94				
CN1c2ccccc2C(NCCCCCCC(=O)NCCCCCCNc2c3c(nc4ccccc24)CCCC3)c2ccc(Cl)cc2S1(=O)=O (stereo unspecified)	6.94	8.42				
CN1c2ccccc2C(NCCCCCCC(=O)NCCNc2c3c(nc4cc(Cl)ccc24)CCCC3)c2ccc(Cl)cc2S1(=O)=O (stereo unspecified)	8.10	7.32				
CN1c2ccccc2C(NCCCCCCC(=O)NCCCCNc2c3c(nc4ccccc24)CCCC3)c2ccc(Cl)cc2S1(=O)=O (stereo unspecified)	6.81	8.44	Active	72.7%	74.9%	
CN1c2ccccc2C(NCCCCCCC(=O)NCCCNc2c3c(nc4cc(Cl)ccc24)CCCC3)c2ccc(Cl)cc2S1(=O)=O (stereo unspecified)	8.17	7.28				
CN1c2ccccc2C(NCCCCCCC(=O)NCCCCCCCNc2c3c(nc4cc(Cl)ccc24)CCCC3)c2ccc(Cl)cc2S1(=O)=O (stereo unspecified)	6.88	7.27				
CN1c2ccccc2C(NCCCCCCC(=O)NCCCCCNc2c3c(nc4cc(Cl)ccc24)CCCC3)c2ccc(Cl)cc2S1(=O)=O (stereo unspecified)	7.55	7.52				
CN1c2ccccc2C(NCCCCCCC(=O)NCCCCCCCNc2c3c(nc4ccccc24)CCCC3)c2ccc(Cl)cc2S1(=O)=O (stereo unspecified)	7.19	8.19				
c1ccc2c(NCCCCCCCNc3c4c(nc5ccccc35)CCCC4)c3c(nc2c1)CCCC3		7.42				
CN1c2ccccc2C(NCCCCCCC(=O)NCCNc2c3c(nc4ccccc24)CCCC3)c2ccc(Cl)cc2S1(=O)=O (stereo unspecified)	7.09	7.65				
CN1c2ccccc2C(NCCCCCCC(=O)O)c2ccc(Cl)cc2S1(=O)=O (stereo unspecified) [TIANEPTINE]					109.7%	110.8%
CN1c2ccccc2C(NCCCCCCC(=O)NCCCCCNc2c3c(nc4ccccc24)CCCC3)c2ccc(Cl)cc2S1(=O)=O (stereo unspecified)	6.97	8.16	Active	67.4%		
